Test system: male and female Sprague–Dawley rats
Assay: 90-day subchronic oral gavage toxicity study
Format: in vivo, rat
Parameters: key to NOEL, absolute liver weight increase / LOEL, absolute liver weight increase / NOEL, relative kidney weight increase / LOEL, relative kidney weight increase / NOEL, absolute kidney weight increase / LOEL, absolute kidney weight increase / NOEL, relative liver weight increase / LOEL, relative liver weight increase: NR: no response, no statistically significant dose-dependent changes
Experimental: Subchronic (90-day) studies were performed in accordance with current U.S. EPA’s Toxic Substances Control Act Good Laboratory Practice (GLP) Standards, with the following two general exceptions to the GLP guidelines: Analysis of the dose formulations was conducted according to RTI-approved Standard Operating Procedures, and corn oil (the vehicle) was not characterized (certificate of analysis from the vendor is available in the appendices to the final reports). Male and female Sprague–Dawley rats (five dose levels plus a control, n = 10/sex/dose group, corn oil vehicle dose volume of 3 mL/kg; oral gavage) were used in these studies, and the rats were euthanized on SD 91. The dose levels for PFHI were 0, 12.5, 25, 50, 100, and 200 mg/kg-day. The dose levels for MHFPK were 0, 18.8, 37.5, 75, 150, and 300 mg/kg-day. The dose levels for PFNAC were 0, 0.1, 0.3, 1.0, 3.0, and 10 mg/kg-day for male rats and 0, 0.3, 1.0, 3.0, 10, and 30 mg/kg-day for female rats. For CTFPA, the dose levels were 0, 1.9, 3.8. 7.5, 15, and 30 mg/kg-day for male rats and 0, 6.3, 12.5, 25, 50, and 100 mg/kg-day for female rats. For each PFAS, three batches of dosing solution were prepared. The time between the batch preparation of the dosing solutions ranged between 29 and 39 days. Blood samples were collected from all the rats at termination for serum chemistry, hematology, coagulation, and the analysis of the parent PFAS chemical in the plasma. In vivo data collection and further detail on the endpoints examined postmortem are described below.
The rats were observed twice daily for morbidity and mortality throughout the study period. At least once prior to randomization to test groups and weekly thereafter, the rats were physically examined, and bodyweights were obtained. Feed consumption was quantified weekly starting on SD 1.
Neurotoxicity was evaluated using the functional observational battery (FOB) and measuring locomotor activity (LMA) 2–4 h post dosing on SDs 78–80 and 80–84, respectively. For both the 14- and 90-day studies, an ophthalmologic examination was conducted prior to randomization and near the end of the study, using indirect ophthalmoscopy and slit–lamp biomicroscopy (as needed) after the administration of a mydriatic solution.
Hematology, biochemistry, and coagulation endpoints were measured at the termination of the study. A Siemens Advia 2120i hematology analyzer (Siemens Healthineers, Erlangen, Germany) was used to measure (or calculate) the parameters related to the complete blood count, leukocyte differential count, and reticulocyte count. The hematology parameters are listed and described in Table 2. The prothrombin time […] and activated partial thromboplastin time (APTT) were measured using an Instrumentation Laboratory (Bedford, MA, USA) ACL Elite Pro coagulation analyzer (laser–nephelometric centrifugal method).
At necropsy, the rats were visually examined for external abnormalities and organ weights (absolute and relative to the BW and brain weight), which were recorded (paired organs weighed together). The tissues were preserved in 10% neutral buffered formalin (NBF), except for the ocular tissues, testes, and epididymides, which were preserved in modified Davidson’s fixative and later transferred to 10% NBF. Bone marrow smears were prepared from the femurs, and the slides were air-dried, fixed in methanol, stained, and stored at room temperature for possible future evaluation. The preserved tissues were embedded in paraffin, sectioned, stained with hematoxylin and eosin, and examined by a board-certified veterinary pathologist.
Statistical analysis was performed using Provantis™ Version 10 or greater (Instem LSS, Limited; Stone, Staffordshire, UK). Differences among the treatment groups compared to the control were evaluated using one-way analysis of variance (ANOVA) if the underlying assumptions of a normal distribution (Shapiro–Wilk test) and the homogeneity of the variance (Levene’s test) were satisfied. […]

SMILES: FC(F)(F)C(F)(F)C(F)(F)C(F)(F)CCI [PFHI, 1H,1H,2H,2H-Perfluorohexyl iodide]
- Bodyweight (BW) and bodyweight gain (90-day, both sexes, all doses): None in females; dose-dependent reduced BW changes in males in all the dose groups, but BW gain on SDs 1-90 was not significantly affected
- Clinical observations (90-day, both sexes, all doses): None
- Coagulation endpoints (90-day, both sexes, all doses): Dose-dependent minimal prolongations in PT (in males at ≥12.5 mg/kg-day and in females at ≥25 mg/kg-day
- Feed consumption (90-day, both sexes, all doses): No changes in males; increased feed consumption in females at 25, 50, and 100 mg/kg-day but not at 200 mg/kg-day
- Functional observational battery (90-day, both sexes, all doses): No changes
- Gross lesions (90-day, both sexes, all doses): None considered as PFHI related
- Hematology (90-day, both sexes, all doses): Minimal decreases in reticulocytes in males at ≥50 mg/kg-day; minimal increases in MPV in females and sporadically in males at 200 mg/kg-day and in both sexes at 50 and 100 mg/kg-day
- Histopathology (90-day, both sexes, all doses): The kidney and liver ^5 of males at ≥100 mg/kg-day and the liver of females at 200 mg/kg-day
- Locomotor activity (90-day, both sexes, all doses): No effects
- Morbidity and mortality (90-day, both sexes, all doses): None
- Ophthalmology (90-day, both sexes, all doses): No ocular lesions
- Organ weight changes (90-day, both sexes, all doses): Mean absolute and/or relative dose-dependent organ weight increases in the liver of females at ≥100 mg/kg-day and males at ≥25 mg/kg-day and kidney weight increases only in males at ≥100 mg/kg-day ^5
- BMD10, absolute liver weight increase (female): 57.8 mg/kg-day
- BMDL, absolute liver weight increase (female): 8.1 mg/kg-day
- LOEL, absolute kidney weight increase (female): NR
- LOEL, absolute liver weight increase (female): 200 mg/kg-day
- LOEL, relative kidney weight increase (female): NR
- LOEL, relative liver weight increase (female): 100 mg/kg-day
- NOEL, absolute kidney weight increase (female): NR
- NOEL, absolute liver weight increase (female): 100 mg/kg-day
- NOEL, relative kidney weight increase (female): NR
- NOEL, relative liver weight increase (female): 50 mg/kg-day
- % BW Gain (female, 12.5 mg/kg-day): 61.51%
- % Diff, % BW Gain (female, 12.5 mg/kg-day): 1.61%
- % Diff, Total BW change (female, 12.5 mg/kg-day): 1.06%
- % Diff, Total Food Consumed (female, 12.5 mg/kg-day): 0.12%
- A/G (female, 12.5 mg/kg-day): 1.09±0.05 ratio
- ALB (female, 12.5 mg/kg-day): 4.28 ± 0.37 g/dL
- ALPi (female, 12.5 mg/kg-day): 42.8±13.0 U/L
- APTT (female, 12.5 mg/kg-day): 18.80 s
- BUN (female, 12.5 mg/kg-day): 16.8 ± 2.7 mg/dL
- CHOL (female, 12.5 mg/kg-day): 110.5 ± 32.7 mg/dL
- GLOB (female, 12.5 mg/kg-day): 3.94 ± 0.25 g/dL
- GLUC (female, 12.5 mg/kg-day): 138.0 ± 29.9 mg/dL
- HCT (female, 12.5 mg/kg-day): 46.90±1.85%
- HGB (female, 12.5 mg/kg-day): 14.91 ± 0.54 g/dL
- Kidney Weight (female, 12.5 mg/kg-day): 1.83 g
- Kidney/Body Weight (female, 12.5 mg/kg-day): 0.58%
- Kidney/Brain Weight (female, 12.5 mg/kg-day): 89.5%
- Liver Weight (female, 12.5 mg/kg-day): 8.53 g
- Liver/Body Weight (female, 12.5 mg/kg-day): 2.68%
- Liver/Brain Weight (female, 12.5 mg/kg-day): 416%
- MPV (female, 12.5 mg/kg-day): 7.10 ± 0.30 fL
- PT (female, 12.5 mg/kg-day): 13.34 s
- Total BW change (female, 12.5 mg/kg-day): 124.60 g
- Total Food Consumed (female, 12.5 mg/kg-day): 1474 g
- % BW Gain (female, 25 mg/kg-day): 60.67%
- % Diff, % BW Gain (female, 25 mg/kg-day): 0.22%
- % Diff, Total BW change (female, 25 mg/kg-day): 1.70%
- % Diff, Total Food Consumed (female, 25 mg/kg-day): 7.27%
- A/G (female, 25 mg/kg-day): 1.07±0.11 ratio
- ALB (female, 25 mg/kg-day): 4.02 ± 0.39 g/dL
- ALPi (female, 25 mg/kg-day): 54.9±21.9 U/L
- APTT (female, 25 mg/kg-day): 18.59 s
- BUN (female, 25 mg/kg-day): 16.2 ± 2.1 mg/dL
- CHOL (female, 25 mg/kg-day): 114.9 ± 14.1 mg/dL
- GLOB (female, 25 mg/kg-day): 3.78 ± 0.16 g/dL
- GLUC (female, 25 mg/kg-day): 153.4 ± 30.6 mg/dL
- HCT (female, 25 mg/kg-day): 48.01±1.96%
- HGB (female, 25 mg/kg-day): 15.38 ± 0.54 g/dL
- Kidney Weight (female, 25 mg/kg-day): 1.83 g
- Kidney/Body Weight (female, 25 mg/kg-day): 0.57%
- Kidney/Brain Weight (female, 25 mg/kg-day): 88.2%
- Liver Weight (female, 25 mg/kg-day): 8.66 g
- Liver/Body Weight (female, 25 mg/kg-day): 2.71%
- Liver/Brain Weight (female, 25 mg/kg-day): 417%
- MPV (female, 25 mg/kg-day): 7.32 ± 0.30 fL
- PT (female, 25 mg/kg-day): 13.51 s
- Total BW change (female, 25 mg/kg-day): 125.38 g
- Total Food Consumed (female, 25 mg/kg-day): 1579 g
- % BW Gain (female, 50 mg/kg-day): 65.42%
- % Diff, % BW Gain (female, 50 mg/kg-day): 8.07%
- % Diff, Total BW change (female, 50 mg/kg-day): 7.25%
- % Diff, Total Food Consumed (female, 50 mg/kg-day): 8.31%
- A/G (female, 50 mg/kg-day): 1.09±0.09 ratio
- ALB (female, 50 mg/kg-day): 4.27 ± 0.46 g/dL
- ALPi (female, 50 mg/kg-day): 43.7±5.5 U/L
- APTT (female, 50 mg/kg-day): 20.46 s
- BUN (female, 50 mg/kg-day): 15.7 ± 2.2 mg/dL
- CHOL (female, 50 mg/kg-day): 119.7 ± 25.4 mg/dL
- GLOB (female, 50 mg/kg-day): 3.91 ± 0.26 g/dL
- GLUC (female, 50 mg/kg-day): 157.1 ± 16.7 mg/dL
- HCT (female, 50 mg/kg-day): 47.80±2.45%
- HGB (female, 50 mg/kg-day): 15.23 ± 0.72 g/dL
- Kidney Weight (female, 50 mg/kg-day): 1.85 g
- Kidney/Body Weight (female, 50 mg/kg-day): 0.57%
- Kidney/Brain Weight (female, 50 mg/kg-day): 93.9%
- Liver Weight (female, 50 mg/kg-day): 8.92 g
- Liver/Body Weight (female, 50 mg/kg-day): 2.76%
- Liver/Brain Weight (female, 50 mg/kg-day): 454%
- MPV (female, 50 mg/kg-day): 7.47 ± 0.44 fL
- PT (female, 50 mg/kg-day): 13.48 s
- Total BW change (female, 50 mg/kg-day): 132.23 g
- Total Food Consumed (female, 50 mg/kg-day): 1595 g
- % BW Gain (female, 100 mg/kg-day): 62.41%
- % Diff, % BW Gain (female, 100 mg/kg-day): 3.09%
- % Diff, Total BW change (female, 100 mg/kg-day): 5.03%
- % Diff, Total Food Consumed (female, 100 mg/kg-day): 13.5%
- A/G (female, 100 mg/kg-day): 1.08±0.06 ratio
- ALB (female, 100 mg/kg-day): 4.32 ± 0.36 g/dL
- ALPi (female, 100 mg/kg-day): 49.7±18.4 U/L
- APTT (female, 100 mg/kg-day): 17.57 s
- BUN (female, 100 mg/kg-day): 16.7 ± 2.6 mg/dL
- CHOL (female, 100 mg/kg-day): 122.7 ± 15.6 mg/dL
- GLOB (female, 100 mg/kg-day): 4.00 ± 0.27 g/dL
- GLUC (female, 100 mg/kg-day): 153.8 ± 19.2 mg/dL
- HCT (female, 100 mg/kg-day): 46.45±1.01%
- HGB (female, 100 mg/kg-day): 14.77 ± 0.32 g/dL
- Kidney Weight (female, 100 mg/kg-day): 1.84 g
- Kidney/Body Weight (female, 100 mg/kg-day): 0.58%
- Kidney/Brain Weight (female, 100 mg/kg-day): 89.7%
- Liver Weight (female, 100 mg/kg-day): 9.17 g
- Liver/Body Weight (female, 100 mg/kg-day): 2.85%
- Liver/Brain Weight (female, 100 mg/kg-day): 447%
- MPV (female, 100 mg/kg-day): 7.34 ± 0.51 fL
- PT (female, 100 mg/kg-day): 13.79 s
- Total BW change (female, 100 mg/kg-day): 129.49 g
- Total Food Consumed (female, 100 mg/kg-day): 1671 g
- % BW Gain (female, 200 mg/kg-day): 53.53%
- % Diff, % BW Gain (female, 200 mg/kg-day): -11.58%
- % Diff, Total BW change (female, 200 mg/kg-day): -11.94%
- % Diff, Total Food Consumed (female, 200 mg/kg-day): 6.33%
- A/G (female, 200 mg/kg-day): 1.15±0.03 ratio
- ALB (female, 200 mg/kg-day): 4.69 ± 0.33 g/dL
- ALPi (female, 200 mg/kg-day): 46.9±15.3 U/L
- APTT (female, 200 mg/kg-day): 19.34 s
- BUN (female, 200 mg/kg-day): 18.0 ± 3.3 mg/dL
- CHOL (female, 200 mg/kg-day): 154.8 ± 35.9 mg/dL
- GLOB (female, 200 mg/kg-day): 4.10 ± 0.33 g/dL
- GLUC (female, 200 mg/kg-day): 155.2 ± 21.4 mg/dL
- HGB (female, 200 mg/kg-day): 14.58 ± 0.80 g/dL
- Kidney Weight (female, 200 mg/kg-day): 1.83 g
- Kidney/Body Weight (female, 200 mg/kg-day): 0.61%
- Kidney/Brain Weight (female, 200 mg/kg-day): 91.3%
- Liver Weight (female, 200 mg/kg-day): 9.65 g
- Liver/Body Weight (female, 200 mg/kg-day): 3.20%
